The values that follow come from ChEMBL document CHEMBL1949598, “Synthesis, cytostatic activity and ADME properties of C-5 substituted and N-acyclic pyrimidine derivatives” (Bioorg Med Chem Lett, 2012).

Each structure is given as a SMILES string. Calls of active or inactive are those of the source. The calls are words filed in the database; no cut-off is given here.

Data set [1] has as its system HCT-116. As to the kind of experiment: Cytotoxicity against human HCT116 cells up to 100 uM after 72 hrs by MTT assay. In kind it is functional, cell-based.
In data set [2] the test system is NCI-H460. Kind of data set: Cytotoxicity against human H460 cells up to 100 uM after 72 hrs by MTT assay. In kind it is functional, cell-based.
In data set [3] the test system is MCF7. As to the kind of experiment: Cytotoxicity against human MCF7 cells up to 100 uM after 72 hrs by MTT assay. Format: functional, cell-based.
In data set [4] the test system is NCI-H460. As to the kind of experiment: Cytotoxicity against human H460 cells after 72 hrs by MTT assay. Format: functional, cell-based. The note with it: NCI-H460, 72 h.
In data set [5] the test system is MCF7. Kind of data set: cells. The note with it: Homo sapiens, MCF7, 72 h.
Description: Cytotoxicity against human MCF7 cells after 72 hrs by MTT assay
In data set [6] the test system is HCT-116. As to the kind of experiment: cells. To be noted: Homo sapiens, HCT-116, 72 h.
A short description of data set [7]: Half life in human liver microsomes at 1 uM.
The nature of data set [8]: (§1) Efflux ratio of apparent permeability from apical to basolateral side over basolateral to apical side in MDCK2 cells expressing human MDR1 in presence of P-gp inhibitor elacridar. In kind it is ADME, cell-based, Canis lupus familiaris, MDCK-II. To be noted: dog, mdck-ii.
The test system of data set [9] is MDR1 (P-gp), human. Kind of data set: Apparent permeability from apical to basolateral side in MDCK2 cells expressing human MDR1 at 10 uM after 60 mins. In kind it is ADME, cell-based, Canis lupus familiaris, MDCK-II. The note with it: dog, MDCK-MDR1.
The test system of data set [10] is MDR1 (P-gp), human. Kind of data set: Efflux ratio of apparent permeability from apical to basolateral over basolateral to apical side of MDCK2 cells expressing human MDR1 gene. In kind it is ADME, cell-based, Canis lupus familiaris, MDCK-II. The note with it: dog, MDCK-MDR1.
The test system of data set [11] is MDR1 (P-gp), human. Kind of data set: Apparent permeability from basolateral to apical side in MDCK2 cells expressing human MDR1 at 10 uM after 60 mins. Format: ADME, cell-based, Canis lupus familiaris, MDCK-II. To be noted: dog, MDCK-MDR1.
Data set [12] is described as follows: Half life in human plasma at 5 uM. Format: ADME.
Data set [13] in a line: Half life in rat liver microsomes at 1 uM.
Data set [14] is described as follows: Metabolic stability in mouse plasma assessed as compound remaining at 5 uM after 24 hrs by LC/MS/MS analysis. In kind it is ADME, cell-free. The note with it: read-out: Stability.
Data set [15] is described as follows: Half life in rat plasma at 5 uM. In kind it is ADME.
Data set [16] can be described thus: Metabolic stability in rat plasma assessed as compound remaining at 5 uM after 24 hrs by LC/MS/MS analysis. In kind it is ADME, cell-free. The note with it: read-out: Stability.
Data set [17] is described as follows: Half life in mouse plasma at 5 uM. Format: ADME.
Data set [18] is described as follows: Metabolic stability in rat liver microsomes assessed as compound remaining at 1 uM after 60 mins by LC/MS/MS analysis. In kind it is ADME, Microsome. The note with it: read-out: Stability.
Data set [19] can be described thus: Metabolic stability in human liver microsomes assessed as compound remaining at 1 uM after 60 mins by LC/MS/MS analysis. The note with it: read-out: Stability. Format: ADME, Microsome.
Data set [20] is described as follows: Metabolic stability in human plasma assessed as compound remaining at 5 uM after 24 hrs by LC/MS/MS analysis. In kind it is ADME, cell-free. The note with it: read-out: Stability.
Data set [21] in a line: Metabolic stability in mouse liver microsomes assessed as compound remaining at 1 uM after 60 mins by LC/MS/MS analysis. To be noted: read-out: Stability. Format: ADME, Microsome.
The nature of data set [22]: Half life in mouse liver microsomes at 1 uM.
In data set [23] the test system is HCT-116. As to the kind of experiment: Cell cycle arrest in human HCT116 cells assessed as accumulation of cells at G2/M phase at 1 uM after 24 hrs using propidium iodide staining by FACS analysis (reference value: 17.4%). In kind it is functional.
Data set [24] deals with HCT-116. As to the kind of experiment: Cell cycle arrest in human HCT116 cells assessed as accumulation of cells at S phase at 5 uM after 24 hrs using propidium iodide staining by FACS analysis (reference value: 50%). In kind it is functional.
Data set [25] concerns HCT-116. Kind of data set: Cell cycle arrest in human HCT116 cells assessed as accumulation of cells at S phase at 1 uM after 48 hrs using propidium iodide staining by FACS analysis (reference value: 31%). Format: functional.
Data set [26] concerns MDR1 (P-gp), human. The description is as §1. Format: ADME, cell-based, Canis lupus familiaris, MDCK-II. The note with it: dog, MDCK-MDR1, with elacridar (P-gp inhibitor; concentration not stated).
The test system of data set [27] is HCT-116. Kind of data set: Cell cycle arrest in human HCT116 cells assessed as accumulation of cells at G2/M phase at 5 uM after 48 hrs using propidium iodide staining by FACS analysis (reference value: 26.6%). In kind it is functional.
Data set [28] concerns HCT-116. Kind of data set: Cell cycle arrest in human HCT116 cells assessed as accumulation of cells at G1 phase at 5 uM after 48 hrs using propidium iodide staining by FACS analysis (reference value: 42.3%). Format: functional.
In data set [29] the test system is HCT-116. Kind of data set: Cell cycle arrest in human HCT116 cells assessed as accumulation of cells at G2/M phase at 1 uM after 48 hrs using propidium iodide staining by FACS analysis (reference value: 26.6%). In kind it is functional.
Data set [30] has as its system HCT-116. As to the kind of experiment: Cell cycle arrest in human HCT116 cells assessed as accumulation of cells at G1 phase at 1 uM after 48 hrs using propidium iodide staining by FACS analysis (reference value: 42.3%). In kind it is functional.
The subject of data set [31] is HCT-116. Kind of data set: Cell cycle arrest in human HCT116 cells assessed as accumulation of cells at S phase at 1 uM after 24 hrs using propidium iodide staining by FACS analysis (reference value: 50%). Format: functional.
In data set [32] the test system is HCT-116. As to the kind of experiment: Cell cycle arrest in human HCT116 cells assessed as accumulation of cells at sub-G1 phase at 1 uM after 24 hrs using propidium iodide staining by FACS analysis (reference value: 1.8%). In kind it is functional.
The subject of data set [33] is HCT-116. As to the kind of experiment: Cell cycle arrest in human HCT116 cells assessed as accumulation of cells at G1 phase at 1 uM after 24 hrs using propidium iodide staining by FACS analysis (reference value: 32.5%). In kind it is functional.
The subject of data set [34] is HCT-116. Kind of data set: Cell cycle arrest in human HCT116 cells assessed as accumulation of cells at sub-G1 phase at 5 uM after 24 hrs using propidium iodide staining by FACS analysis (reference value: 1.8%). Format: functional.
Data set [35] relates to HCT-116. As to the kind of experiment: Cell cycle arrest in human HCT116 cells assessed as accumulation of cells at sub-G1 phase at 5 uM after 48 hrs using propidium iodide staining by FACS analysis (reference value: 1.5%). Format: functional.
Data set [36] has as its system HCT-116. Kind of data set: Cell cycle arrest in human HCT116 cells assessed as accumulation of cells at G2/M phase at 5 uM after 24 hrs using propidium iodide staining by FACS analysis (reference value: 17.4%). Format: functional.
Data set [37] has as its system HCT-116. As to the kind of experiment: Cell cycle arrest in human HCT116 cells assessed as accumulation of cells at sub-G1 phase at 1 uM after 48 hrs using propidium iodide staining by FACS analysis (reference value: 1.5%). In kind it is functional.
The test system of data set [38] is HCT-116. Kind of data set: Cell cycle arrest in human HCT116 cells assessed as accumulation of cells at S phase at 5 uM after 48 hrs using propidium iodide staining by FACS analysis (reference value: 31%). In kind it is functional.
For data set [39], the system named is HCT-116. Kind of data set: Cell cycle arrest in human HCT116 cells assessed as accumulation of cells at G1 phase at 5 uM after 24 hrs using propidium iodide staining by FACS analysis (reference value: 32.5%). In kind it is functional.

Take `COCn1cc(CCO)c(=O)[nH]c1=O`: the “growth inhibition (GI)” value in data set [1], in [2] and in data set [3] was “inactive” in each case.

For the compound `CC(=O)OCCc1c[nH]c(=O)[nH]c1=O`, the “growth inhibition (GI)” value in [1], in data set [2] and in data set [3] was “inactive” in each case.

With `COc1nc(Cl)ncc1CCF`, the “growth inhibition (GI)” value in data set [1], in data set [2] and in [3] was “inactive” each time.

Regarding `COCn1cc(CCO)c(OC)nc1=O`, the “growth inhibition (GI)” value in data set [1], in [2] and in data set [3] was “inactive” throughout.

Regarding `COc1ncc(CCO)c(OC)n1`, the “growth inhibition (GI)” value in data set [1], in data set [2] and in data set [3] was “inactive” throughout.

For `COCOCCc1cnc(OC)nc1OC`, the “growth inhibition (GI)” value in data set [1], in data set [2] and in data set [3] was “Active” in each case. The IC50 in [4] was over 100 µM; in data set [5], over 100 µM; in [6], 75 µM.

Consider `Cc1nc(Cl)nc(Cl)c1CCCl`, for which the half-life at 1 µM in [7] was found to be 2.42 h; in [13], 2.23 h; in data set [22], 0.767 h. Besides, the Ratio in data set [8] is 1.4. Also, the Papp A→B at 1 h, 10 µM in [9] worked out at 35.8 ×10⁻⁶ cm/s. Further, the efflux ratio in data set [10] was found to be 0.6. In addition, the Papp B→A at 1 h, 10 µM in data set [11] is 20.9 ×10⁻⁶ cm/s. Further, the figures for the half-life at 5 µM in data set [12], in [15] and in data set [17] were 10 h, 3.07 h and 7.97 h, respectively. The remaining at 24 h, 5 µM was determined as 22% in data set [14], 3% in [16] and 20% in [20]. Also, the remaining at 1 h, 1 µM stood at 74% in data set [18], 76% in data set [19] and 41% in data set [21].

As to `O=c1[nH]cc(F)c(=O)[nH]1` [FLUOROURACIL], the IC50 was 3 µM in data set [4] and 14 µM in data set [5].

As to `COCn1cc(CCO)c(=O)n(COC)c1=O`, the “growth inhibition (GI)” value in data set [1], in data set [2] and in [3] was “inactive” throughout.

As to `ClCCc1cnc(Cl)nc1Cl`, the Activity was 17.2% in data set [23]; 14.6% in [24]; 31.5% in data set [25]; 60.7% in data set [27]; 24.6% in data set [28]; 26.7% in data set [29]. Besides, the Activity in data set [30] is given as 41.7%; in data set [31] it was 48.8%; in data set [32], 2.5%; in data set [33], 33.5%; in data set [34] it was 8.1%; in data set [35], 8.5%. The Activity in data set [36] was determined as 77.6%; in data set [37], 1.7%; in data set [38], 14.8%; in data set [39] it was 7.8%. Further, the values for the half-life at 1 µM in [7], in [13] and in data set [22] were 1.73 h, 2.23 h and 0.567 h, respectively. The efflux ratio in data set [26] and in [10] was 1.2 throughout. For the same compound, the IC50 turned out to be 3 µM in data set [4], 10 µM in [5] and 0.8 µM in [6]. Further, in [9], the Papp A→B at 1 h, 10 µM amounted to 20.8 ×10⁻⁶ cm/s. Besides, in data set [11], the Papp B→A at 1 h, 10 µM is 25.8 ×10⁻⁶ cm/s. Moreover, the half-life at 5 µM was determined as 2.55 h in data set [12], 0.4 h in data set [15] and 1.52 h in data set [17]. The remaining at 24 h, 5 µM in data set [14], in [16] and in data set [20] was 0% throughout. Moreover, the values for the remaining at 1 h, 1 µM in data set [18], in data set [19] and in [21] were 73%, 65% and 33%, respectively.
